Assay results reported in US20190148754A1, “USE OF IONIC LIQUIDS AS AN ADJUVANT IN ELECTROCHEMISTRY” (UNIVERSITE DE RENNES 1, priority 2016, published 2019).
Converted amounts (≈) assume the structure as drawn. Like-named read-outs stand apart in the source and are kept apart here. Values belong to the compound of their own block, whether it stands above or below them.

How the values were obtained:
[1] = Maximum solubility / solubilisation of organic compounds in ionic liquid/basic aqueous solution mixtures (flask method); conditions: for solubility: thermodynamic from solid; for natural solubility in a solution of pH=14: pH=14, without ionic liquid; for concentration of solution obtained: KOH 2M
Procedure: (§1) 100 mg of the targeted organic compound are introduced into a flask as well as the desired quantity of ionic liquid to be tested. A basic aqueous solution is added in portions of 0.1 mL until a solution is obtained. The maximum concentration is then determined in accordance with the following formula:
Cmax=[mcompound/Mcompound]/V
(§2) Cmax is the maximum concentration of given organic molecule in mol·L^−1, mcompound is the mass of the introduced organic molecule (in g), Mcompound is the molar mass of this organic molecule (in g·mol^−1) and V is the volume of added aqueous solution (in L).
(§3) The quinone is introduced into a volumetric flask (the quantity is dependent on the targeted concentration, generally between 0.1 and 0.5 M). The liquid is added (the quantity is dependent on the solubilising power of the ionic liquid, in stoichiometric quantity in relation to the quinone). An aqueous solution containing hydroxide ions at a concentration between 0.1 and 5 M is added until the flask is full.

physchem = conditions: aqueous with cosolvent or surfactant or cyclodextrin, thermodynamic from solid, Solubility in KOH 2 mol · L^−1 and ionic liquid: Anthraquinone
Procedure: as §1
Cmax=[mcompound/Mcompound]/V
as §2, §3

[2] = Cyclic voltammetry of electrolytic solutions; type: physicochemical; conditions: vitreous carbon electrode
Procedure: The action of the ionic liquids on the solubility of the organic molecules can be observed by a simple electrochemical analysis. The method used is voltammetry with linear variation of the potential. The result is the plotting of a curve i=f(E) of which the value of the oxidation or reduction current of the electroactive molecule is proportional to its concentration in solution. The electrochemical analyses are performed in an electrochemical cell of which the volume is 40 ml. The volume of the solutions introduced into the electrochemical cell is 10 ml.
In order to perform the analyses, three electrodes immersed in the solution are used: • Working electrode. The working electrode is the location of the studied electrochemical reaction. In this instance, an electrode which is made of vitreous carbon and has a surface of 3 mm diameter, or a nickel electrode of 5 mm diameter was used. The electrochemical reactions are often sensitive to the nature of the electrodes. For example, depending on their nature, some electrodes may passivate and others may not, compared to the same electrochemical system in solution. • Counter electrode. The counter electrode enables the passage of the current in the solution between itself and the working electrode. This electrode must be very stable (for example must not dissolve in the event of oxidation). […]

[3] = aqueous KOH solution with ionic liquid, aqueous with cosolvent or surfactant or cyclodextrin, Solubility in KOH 2 mol · L^−1 and ionic liquid: Anthraquinone, KOH 2 mol·L^−1, ionic liquid (I-a), (I-b) or (I-c) 0.5 mol·L^−1
[4] = aqueous KOH solution without ionic liquid, aqueous buffer, Solubility in KOH 2 mol · L^−1, aqueous KOH 2 mol·L^−1, without ionic liquid

Compound: Nc1cccc2c1C(=O)c1ccccc1C2=O
solubility [1, 3]: 100 mM (≈ 22.3 mg/mL)
solubility [1, 4]: < 100 mM
natural solubility in a solution of pH=14 [1]: very weak

Compound: O=C1c2ccccc2C(=O)c2ccccc21
natural solubility in a solution of pH=14: very weak
solubility (physchem): < 100 mM

Compound: O=C1c2cccc(O)c2C(=O)c2cccc(O)c21
solubility [1, 3]: 500 mM (≈ 120 mg/mL)
solubility [1, 4]: 100 mM (≈ 24 mg/mL)

Compound: O=C1c2ccccc2C(=O)c2c1cc(S(=O)(=O)[O-])c(O)c2O.[Na+] [Alizarin redS, Alizarin Red S]
increase in the intensity of the oxidation peak and the reduction peak (factor) ([2]; 0.6 M ionic liquid vs none, 100 mV·s^−1 (FIG. 1)): 15
peak current intensity ([2]; 0.6 mol·L^−1 with 0.6 mol·L^−1 ionic liquid, 100 mV·s^−1): greater than 60 mA·cm^−2
solubility ([1]; aqueous KOH solution with ionic liquid, aqueous with cosolvent or surfactant or cyclodextrin, Solubility in KOH 2 mol · L^−1 and ionic liquid: Anthraquinone, KOH 2 mol·L^−1, ionic liquid (I-a), (I-b) or (I-c) 0.6 mol·L^−1): 600 mM
solubility ([1]; aqueous KOH solution with ionic liquid, aqueous with cosolvent or surfactant or cyclodextrin, solubility in the presence of ionic liquid, KOH 2 mol·L^−1, 0.6 M ionic liquid): 600 mM
solubility [1, 4]: 200 mM
solubility ([1]; aqueous KOH solution without ionic liquid, aqueous buffer, solubility in a solution of KOH 2 mol·L^−1, KOH 2 mol·L^−1, without ionic liquid): ~200 mM

Next, values leading:

concentration of solution obtained ([1]; 1,3-dimethylimidazolium methyl sulfate 1:1 with alizarin): greater than 0.5 M
concentration of solution obtained ([1]; 1,3-dimethylimidazolium methyl sulfate less than 1:1 to alizarin, precipitate still visible): < 0.5 M
concentration of solution obtained ([1]; N-methylisoquinolinium methyl sulfate 1:1 with alizarin, precipitate still visible): < 0.5 M
concentration in aqueous solution of KOH 2 M with ionic liquid ([1]; KOH 2 M, addition of 10% (vol.) ionic liquid): 0.5 M
concentration of solution obtained ([1]; alizarin/1,3-dimethylimidazolium methyl sulfate/N-methylisoquinolinium methyl sulfate 1:0.5:0.5): 0.8 M
concentration of solution obtained ([1]; either isolated ionic liquid, alizarin/ionic liquid 1:0.5, no solution obtained): < 0.5 M
solubility [1, 3]: 500 mM (≈ 120 mg/mL)
solubility ([1]; aqueous KOH solution with ionic liquid, aqueous with cosolvent or surfactant or cyclodextrin, concentration solubilised in aqueous solution of KOH 2 M with ionic liquid, KOH 2 M, 5% (vol.) ionic liquid): 250 mM (≈ 60.1 mg/mL)
solubility [1, 4]: 100 mM (≈ 24 mg/mL)
solubility ([1]; aqueous KOH solution without ionic liquid, aqueous buffer, soluble concentration in aqueous solution of KOH 2 M, KOH 2 M, without ionic liquid (saturation)): 100 mM (≈ 24 mg/mL)
Compound: O=C1c2ccccc2C(=O)c2c1ccc(O)c2O [alizarin, Alizarin]

solubility [1, 3]: 100 mM (≈ 28.8 mg/mL)
solubility [1, 4]: < 100 mM
natural solubility in a solution of pH=14 [1]: very weak
Compound: O=C1c2ccccc2C(=O)c2cc(S(=O)(=O)O)ccc21
